Series [1] can be described thus: Tarnish-monitoring experiments in a dishwasher with varied bleaching agent and mainwash pH, visual evaluation against the Example 1 reference scale. The conditions noted are these: for reduction of tarnishing: pH 7.5 (peracetic acid 4.12%); for reduction in tarnishing: pH 10.5 (sodium hypochlorite 8.23%). On the procedure:
(§1) Tarnishing-monitoring experiments were conducted, using samples A, B, C, D, E, and F at a product dosage of 40 grams per run in a Bauknecht GSF 3162 dishwasher, with an intake of 5 litres water. The mainwash pH values for compositions A and B were adjusted to 7.5; the mainwash pH values for compositions C and D were adjusted to 8.5. Two experiments (each) were conducted, using compositions E and F; the mainwash pH values were adjusted to 9.0 and 10.5, respectively. Silver-plated spoons, knives, and forks (supplied by Oneida Silversmiths, USA), were used as monitors for all experiments. The monitors were washed in a commercially available hand dishwashing liquid and rinsed with deionized water and acetone before use. At the end of the dishwashing machine program, the monitors were visually evaluated for the presence of colours and/or loss of shine, according to the reference scale described in Example 1.
as §1, with “Tarnish monitoring” for “Tarnishing-monitoring”, “conducted” for “conducted,”, “compositions” for “samples”, “D E” for “D, E,”, “available” for “available hand”
Tarnish monitoring experiments were conducted using compositions A, B, C, D, E and F at a product dosage of 40 grams per run in a Bauknecht GSF 3162 dishwasher, with an intake of 5 litres water. The mainwash pH values for compositions A and B were adjusted to 7.5; the mainwash pH values for compositions C and D were adjusted to 8.5. Two experiments (each) were conducted using compositions E and F; the mainwash pH values were adjusted to 9.0 and 10.5. respectively. Silver-plated spoons, knives and forks (supplied by Oneida Silversmiths, USA), were used as monitors for all experiments. The monitors were washed in a commercially available dishwashing liquid and rinsed with deionized water and acetone before use. At the end of the dishwashing machine program, the monitors were visually evaluated for the presence of colours and/or loss of shine, according to the reference scale described in Example 1.

A short description of another series: physchem. In kind it is physicochemical. On the procedure: As used herein, the term "pKa" means a pH value at which 50% of the heterocyclic ring moieties of the compound (particularly the five-membered rings in the case of the purine class compounds) are in ionic form.
The pH of this solution was adjusted to 3.0 with H2SO4. The solution was then titrated with 1N NaOH to pH 11.0. A plot of mls. NaOH vs. pH for each sample was prepared. The pKa of the compound is that point where the maximum change in pH as a function of mls. NaOH is observed.

The nature of series [2]: Silver plates held in the compositions for 25 minutes, evaluated for tarnishing. The conditions noted are these: 4 wt.% epsilon-phthalimido peroxyhexanoic acid. On the procedure: A comparison of anti-tarnishing performance of purine class compounds within the scope of the invention and azole compounds outside the invention was conducted. The selected compounds were incorporated in an amount of 1 wt.% in a machine dishwashing composition containing 4 wt.% epsilon-phthalimido peroxyhexanoic acid as the bleaching agent. The pH values of the compositions were adjusted by the addition of a 50% solution of sodium hydroxide or concentrated sulfuric acid, as necessary.
(§2) Copper plates and silver plates were held in each of the compositions for 25 minutes, removed, rinsed with deionized water and evaluated for tarnishing. […]
A comparison of anti-tarnishing performance of 1,3-N azole compounds within the scope of the invention and azole compounds outside the invention was conducted. The selected compounds were incorporated in an amount of 1 wt.% in a machine dishwashing composition containing 4 wt.% epsilon-phthalimido peroxyhexanoic acid as the bleaching agent. The pH values of the compositions were adjusted by the addition of a 50% solution of sodium hydroxide or concentrated sulfuric acid, as necessary.
as §2

A short description of series [3]: Tarnish-monitoring experiments in a dishwasher, monitors visually ranked 0 to 6 against the Example 1 reference scale. On the procedure: The wash program consisted of a pre-wash at 40°C, a mainwash at 55°C, two intermediate rinses, and a final rinse at 65°C.
The mainwash pH with these compositions was typically 8.7. Silver-plated spoons (2 per run) were the monitors used in the test. The spoons were supplied by Oneida Silversmiths, USA. The monitors were washed in a commercially available hand dishwash liquid and rinsed with deionized water and acetone before use. In the dishwasher the monitors were kept apart from each other in the cutlery basket. At the end of a single-run machine program, the monitors were visually analyzed for the presence of colours and the loss of gloss.
This ranking of spoons was used as a reference scale for all subsequent Examples.

Where [4] appears, read: Example 11: 1,2,4-triazole 1.0%.

By pKa is commonly meant the negative logarithm of the acid dissociation constant. A lower pKa goes with a stronger acid or weaker base. For `c1ncc2[nH]cnc2n1` [Purine], the “level of tarnishing relative to the samples which did not contain purine” value in series [1] (Example 4: purine 1.0%, peracetic acid pH 7.5, epsilon-phthalimidoperoxy hexanoic acid pH 8.5, sodium hypochlorite pH 9.0 and 10.5) is “greatest at pH values of 7.5, 8.5 and 9.0”. In addition, in the series “physchem”, the pKa came out at 5.5. In addition, the “Effective Silver Anti-Tarnishing” value in series [2] (Example 5: 1 wt.% compound, pH of composition 8.6) is “Yes (A tarnish score of 3 or less was considered effective as a silver anti-tarnishing compound)”.

Regarding `c1nc[nH]n1` [1,2,4-triazole], the “level at which optimum performance was achieved” value in series [3] (Example 12) was found to be 1 % by weight. In addition, in series [3] (Example 12, at amounts of 0.05 % by weight), the “silver tarnishing, in words” value is “effectively reduced silver tarnishing”. Moreover, in series [1] (setting [4]), the reduction of tarnishing is reported as 1.5 units of tarnishing and the reduction in tarnishing is listed as 3.0 units. Further, in series [1] (Example 11: 1,2,4-triazole 1.0%, peracetic acid, epsilon-phthalimidoperoxyhexanoic acid or sodium hypochlorite, pH 7.5 to 10.5), the “level of tarnishing relative to the case where no anti-tarnishing agent was present” value is recorded as “reduced the level of tarnishing”. The same compound came in with a pKa of compounds in the series “physchem” (deionized water) of 5.4. The “Effective Silver Anti-Tarnishing” value in series [2] (Example 13: 1 wt.% compound, pH of composition 8.8) is given as “Yes (A tarnish score of 3 or less was considered effective as a silver anti-tarnishing compound)”.

With `O=c1[nH]c(=O)[nH]c(=O)[nH]1` [cyanuric acid, 1,3,5-triazine-2,4,6(1H,3H,5H)-trione], the “level which gives optimum anti-tarnish performance” value in series [3] (Example 9) was “about 1%”. In addition, the “appearance of the monitors” value in series [3] (Example 9, cyanuric acid at a 2.5% level) was “slightly yellow appearance”. In addition, in series [1] (Example 8: cyanuric acid 1.0%), the reduction of tarnishing was 1.5 units of tarnishing and the reduction in tarnishing turned out to be 3.0 units. The “level of tarnishing relative to the case where no anti-tarnish agent was present” value in series [1] (Example 8: cyanuric acid 1.0%, peracetic acid, epsilon-phthalimidoperoxyhexanoic acid or sodium hypochlorite, pH 7.5 to 10.5) is “reduced the level of tarnishing”.

These data come from patent EP0723577B1, “DETERGENT COMPOSITIONS CONTAINING SILVER ANTI-TARNISHING AGENTS” (UNILEVER N.V., priority 1993, dated 1995).
